Assay results reported in patent US11904051B2, “Shear stress sensitive liposomes” (Universität Basel, priority 2018, dated 2024).
Values belong to the molecule of their own block, whether it stands above or below them.

Key:
Type in all cases: physicochemical
[1] = Cryo-TEM of liposomal suspensions of the SANS study
Procedure: The liposomal suspensions were diluted at a ratio of 1:2 with D2O, to a final concentration of 5 mg/mL. Next, 4 μL aliquots of each suspension were adsorbed onto a holey carbon-coated grid (Lacey, Tedpella, USA), blotted with Whatman 1 filter paper and vitrified into liquid ethane at a temperature of −178° C., using a Leica GP plunger (Leica, Austria). Frozen grids were transferred onto a Talos electron microscope (Thermo Fisher, USA), using a Gatan 626 cryo-holder. Electron micrographs were recorded at an accelerating voltage of 200 kV and a nominal magnification of 45,000×, using a low-dose system (20 e^−/Å^2) and keeping the sample at liquid nitrogen temperature. Micrographs were recorded on the CETA camera. Pixel size at the sample level was (3.26 Å)^2.

[2] = Dynamic light scattering of liposome formulations before and after SANS heating cycles; settings: for PDI, After heating / Size (hydrodynamic), After heating: after the SANS experiments (n = 3); for Size (hydrodynamic), After heating: heating to 42° C. and back, eight months after; for Size (hydrodynamic), Before heating / PDI, Before heating: before the SANS experiments (n = 5); for Size (hydrodynamic), Before heating: room temperature, D2O
Procedure: A library of artificial phospholipids was synthesised. Table 5 summarises the characterisation of the liposomal formulations concerning hydrodynamic size and polydispersity, before and after the temperature-dependent SANS measurements. The size of the DPPC and Pad-PC-Pad liposomes was (120±2) nm with a polydispersity index between 0.01 and 0.20. […] Pad-Pad-PC and Sur-PC-Sur liposomes were 400 to 1,500 nm in size with a polydispersity index of 0.57.
DLS measurements were carried out on a DelsaMax PRO (Beckman Coulter, USA) at room temperature and at a lipid concentration of 0.3 mg/mL in D2O. The data were averaged among five independent measurements before heating cycles and three measurements eight months after applying heating cycles. Data were treated with the cumulant analysis method.

[3] = Spatially resolved SAXS of liposomes under dynamic (flow/shear) condition in microfluidic device
Procedure: The measurement in glass capillaries provided the fingerprint of Pad-PC-Pad liposome structure in static condition. In order to investigate the behavior of Pad-PC-Pad liposomes under an external perturbation, such as a shear stress gradient, 2D raster SAXS scans of Pad-PC-Pad liposomes under flow conditions, produced in a microfluidic device, were recorded. Three flow velocities v were tested: v=0.002; 0.02; and 0.2 μL/s. The corresponding shear rates were determined using Eq. 1. From the lowest to the highest flow rate, the shear rates in the constriction (h=250 μm, w=125 μm) were=1.54, 15.4, and 154.0 s^−1, whereas in the wide region (h=250 μm, w=1000 μm) they corresponded to =0.2 s^−1, 2.0 s^−1, and 20.0 s^−1 2 D maps of the mean scattering intensity in the range Δq=0:096 to 0:102 nm^−1 corresponding to a real space range Δd=65.4 to 61.6 nm between the overall size and the size of the phospholipid head-to-head distance are shown in FIG. 12.
The local modifications of the averaged scattering intensity distribution observed in the 2D scanning SAXS maps of FIG. 12 supported the selection of seven regions of the micro fluidic device, as shown in the sketch of FIG. 13. Three regions were selected before the constriction: one far (#1), one approaching (#2), and one very close (A); symmetrically, on the outlet side, three areas were chosen one very close (B), one close (#4), and one far from the constriction (#5). Region #3 was selected in the constriction avoiding the edges of the device. For each region, the radially integrated scattering intensity I as a function of the scattering vector q at each flow rate v is shown.
The spatially resolved SAXS measurements were performed at the cSAXS beamline at the Swiss Light Source (PSI, Villigen, Switzerland). The X-ray beam was focused to 25 μm×50 μm (vertical×horizontal) spot size at the specimen location, the photon energy was set to 11:2 keV (λ=1:1 Å), and the sample-detector distance to 7:102 m, determined by the first scattering order of a silver behenate specimen. The scattering signal was recorded using the Pilatus 2M detector (Kraftet al., J. Synchrotron Radiat. 2009, 16, 368-375) (pixel size: 172 μm_×172 μm). Dynamic spatially resolved SAXS measurements of the liposomal suspensions were performed using microfluidic devices mounted on an aluminum/polyetheretherketone/aluminum sample holder. Two-dimensional (2D) scans were realized line-by-line by continuously moving the device in horizontal direction, while the detector recorded the data in burst mode. 48 (v)×96 (h) points at step size 25 μm (v)×50 μm (h) were acquired in a pre-selected region of the microfluidic device with an exposure time of 1:5 s per point. The data were processed using the Matlab package available from the beamline (https://www.psi.ch/sls/csaxs/software). During the experiment, the flow rates were adjusted using a syringe pump system (Nemesys, Cetoni GmbH, Korbussen, Germany) connected to the microchannel using polytetrafluoroethylene (PTFE) tubing. For the point-wise background correction, the scattering signal of ultra-pure water in the microfluidic device for all the measured flow rates was recorded before the acquisition of the SAXS signal of the liposomal suspensions. For the microfluidic device with a rectangular channel cross-section, the wall shear rates were calculated from the volumetric flow rates v using the following equation: (Molloy et al., Journal of Thrombosis and Haemostasis 2016, 15, 972-982) λ=6v=h^2w (1) with the shear rate [s^−1], v the volumetric flow rate [μL/s], and w and h the width and height [μm] of the channel, respectively.

[4] = flow rate 0.002 pL/s, position #1
[5] = flow rate 0.002 pL/s, position #2
[6] = flow rate 0.002 pL/s, position #3 (constriction)
[7] = flow rate 0.002 pL/s, position #4
[8] = flow rate 0.002 pL/s, position #5
[9] = flow rate 0.002 pL/s, position A
[10] = flow rate 0.002 pL/s, position B
[11] = flow rate 0.02 pL/s, position #1
[12] = flow rate 0.02 pL/s, position #2
[13] = flow rate 0.02 pL/s, position #3 (constriction)
[14] = flow rate 0.02 pL/s, position #4
[15] = flow rate 0.02 pL/s, position #5
[16] = flow rate 0.02 pL/s, position A
[17] = flow rate 0.02 pL/s, position B
[18] = flow rate 0.20 pL/s, position #1
[19] = flow rate 0.20 pL/s, position #2
[20] = flow rate 0.20 pL/s, position #3 (constriction)
[21] = flow rate 0.20 pL/s, position #4
[22] = flow rate 0.20 pL/s, position #5
[23] = flow rate 0.20 pL/s, position A
[24] = flow rate 0.20 pL/s, position B

- mean size of liposomes derived from cryo-TEM images ([1]; after SANS heat treatment and eight months' storage): 87±20 nm
- multi-lamellar liposomes ([1]; determined by cryo-TEM): About 16%
- PDI, After heating [2]: 0.33 ± 0.02
- Size (hydrodynamic), After heating [2]: 600 ± 40 nm
- Size (hydrodynamic), Before heating [2]: 120±2 nm
- Size (hydrodynamic), Before heating ([2]; listed as DPPC (1)): 120 ± 2 nm
- PDI, Before heating ([2]; listed as DPPC (1)): 0.01 ± 0.01
SMILES: CCCCCCCCCCCCCCCC(=O)OC[C@H](COP(=O)([O-])OCC[N+](C)(C)C)OC(=O)CCCCCCCCCCCCCCC [DPPC, 1,2-dipalmitoyl-sn-glycero-3-phosphocholine]

- diameter of flattened liposomes and/or bicelles (cryo-TEM) ([1]; heated above Tm): about 50 nm
- average size of liposomes estimated from cryo-TEM images ([1]; not heated above transition temperature): 92±14 nm
- Radius of gyration Rg [3, 4]: 59.5 ± 0.2 nm
- head-to-head distance dhh [3, 4]: 3.4 ± 0.7 nm
- Radius of gyration Rg [3, 5]: 59.1 ± 0.1 nm
- head-to-head distance dhh [3, 5]: 3.1 ± 0.4 nm
- Radius of gyration Rg [3, 6]: 63.0 ± 0.5 nm
- head-to-head distance dhh [3, 6]: 3.9 ± 0.7 nm
- Radius of gyration Rg [3, 7]: 61.1 ± 0.2 nm
- head-to-head distance dhh [3, 7]: 3.9 ± 0.4 nm
- Radius of gyration Rg [3, 8]: 61.6 ± 0.2 nm
- head-to-head distance dhh [3, 8]: 3.8 ± 0.3 nm
- Radius of gyration Rg [3, 9]: 60.3 ± 0.4 nm
- head-to-head distance dhh [3, 9]: 3.4 ± 0.5 nm
- Radius of gyration Rg [3, 10]: 59.3 ± 0.9 nm
- head-to-head distance dhh [3, 10]: 4.0 ± 0.6 nm
- Radius of gyration Rg [3, 11]: 60.2 ± 0.2 nm
- head-to-head distance dhh [3, 11]: 3.4 ± 0.7 nm
- Radius of gyration Rg [3, 12]: 58.0 ± 0.4 nm
- head-to-head distance dhh [3, 12]: 2.9 ± 0.2 nm
- Radius of gyration Rg [3, 13]: 64.3 ± 0.6 nm
- head-to-head distance dhh [3, 13]: 3.5 ± 0.6 nm
- Radius of gyration Rg [3, 14]: 59.1 ± 0.3 nm
- head-to-head distance dhh [3, 14]: 3.6 ± 0.3 nm
- Radius of gyration Rg [3, 15]: 61.3 ± 0.1 nm
- head-to-head distance dhh [3, 15]: 3.9 ± 0.4 nm
- Radius of gyration Rg [3, 16]: 55.1 ± 0.5 nm
- head-to-head distance dhh [3, 16]: 2.9 ± 0.2 nm
- Radius of gyration Rg [3, 17]: 52.4 ± 0.8 nm
- head-to-head distance dhh [3, 17]: 4.3 ± 0.5 nm
- Radius of gyration Rg [3, 18]: 61.6 ± 0.4 nm
- head-to-head distance dhh [3, 18]: 3.4 ± 0.9 nm
- Radius of gyration Rg [3, 19]: 61.0 ± 0.5 nm
- head-to-head distance dhh [3, 19]: 3.4 ± 0.7 nm
- Radius of gyration Rg [3, 20]: 64.0 ± 0.8 nm
- head-to-head distance dhh [3, 20]: 3.8 ± 0.8 nm
- Radius of gyration Rg [3, 21]: 58.0 ± 0.3 nm
- head-to-head distance dhh [3, 21]: 4.0 ± 0.6 nm
- Radius of gyration Rg [3, 22]: 60.0 ± 0.4 nm
- head-to-head distance dhh [3, 22]: 4.0 ± 0.7 nm
- Radius of gyration Rg [3, 23]: 61.4 ± 0.6 nm
- head-to-head distance dhh [3, 23]: 3.2 ± 0.6 nm
- Radius of gyration Rg [3, 24]: 52.3 ± 0.9 nm
- head-to-head distance dhh [3, 24]: 4.4 ± 0.4 nm
- PDI, After heating [2]: 0.33 ± 0.04
- Size (hydrodynamic), After heating [2]: 53 ± 4 nm
- Size (hydrodynamic), Before heating [2]: 120±2 nm
- Size (hydrodynamic), Before heating ([2]; listed as Pad-PC-Pad (4)): 126 ± 4 nm
- PDI, Before heating ([2]; listed as Pad-PC-Pad (4)): 0.19 ± 0.04
SMILES: CCCCCCCCCCCCCCCC(=O)NCC(CNC(=O)CCCCCCCCCCCCCCC)OP(=O)([O-])OCC[N+](C)(C)C [Pad-PC-Pad, 1,3-palmitoylamido-1,3-deoxy-sn-glycero-2-phosphatidylcholine]

- DLS most probable / dominant or smaller population size [2]: about 150 nm
- PDI, After heating [2]: 0.32 ± 0.03
- Size (hydrodynamic), After heating [2]: 700 ± 100 nm
- PDI, Before heating [2]: 0.57 ± 0.01
- Size (hydrodynamic), Before heating ([2]; listed as Rad-PC-Rad (5)): 150 ± 3 nm
SMILES: CCCCCCCCCCCCCCCCC(=O)NCC(CNC(=O)CCCCCCCCCCCCCCCC)OP(=O)([O-])OCC[N+](C)(C)C [Rad-PC-Rad, 1,3-diheptadecanamidopropan-2-yl (2-(trimethylammonio)ethyl) phosphate]
